Assay results as given in patent US8987449B2, “Medicine for treating ischemic brain injury and its sequelae, and preparation method thereof” (Haimin Lei, priority 2011, dated 2015).

How the values were obtained:
MCAO rats [1] = experiment: Neurological symptoms of MCAO rats (Zea Longa 5 grades); type: in vivo, rat; settings: 0-4 points; for neurological symptoms evaluation (3 d): model group 1.74 ± 0.73; for neurological symptoms evaluation (7 d): model group 1.61 ± 0.96
Experimental: 140 healthy SD male rats, weighing 280-300 g, provided by Beijing Vital River Laboratories, certificate No.: SCXK (Jing) 2002-2003.
Tetramethylpyrazine (TMP), vanillic acid, LQC-T4 (self made), the purity ≧98%, determined using high performance liquid chromatography (HPLC), which met the requirement of experiment, the powder being carefully sealed and preserved at 4° C., and imodipine (ShanDong XinHua Pharmaceutical CO., Ltd, batch No.: 0908164).
The method of [Koizumi J, Yoshida Y, Nakazawa T, Ooneda G. Experimental studies of ischemia brain edema, I: A new experimental model of cerebral embolism in rats in which recirculation can be introduced in the ischemic area[J]. Jpn J Stroke, 1986, 8:1-8] was referred to in order to establish the MCAO model. After the rats were anesthetized and the skin thereof was disinfected by ethanol. By cutting right in the middle of the neck, the right common carotid artery, internal carotid artery and external carotid artery were separated and the common carotid artery and external carotid artery were ligated. The internal carotid artery was clamped with a bulldog clamp. A cut was made at the crotch of the external carotid artery and the internal carotid artery followed by releasing the bulldog clamp. The nylon wire was inserted into the cut with the deep of about a little longer than 18 mm to achieve the cerebral ischemia caused by cerebral artery occlusion. Next, the external carotid artery was ligated and the nylon wire was fixed. In sham operation group, the right common carotid artery, the external carotid artery and the internal carotid artery were only exposed and separated. The rats were routinely raised in different cages. 0.5 ml penicillin was continuously injected into every mouse for three days after the surgery.
The evaluating standard of the neurological symptoms of MCAO rats were carried out according to the Zea Longa 5 grades evaluating method, that is, the rats were evaluated when they were conscious after 6 h after the surgery: no apparent neurological symptom, 0 point; not being able to completely stretch the left front claw, 1 point; whirling leftward, 2 point; leaning leftward when walking, 3 point; having an epileptic seizure, losing consciousness and not being able to walk independently, as 4 point. The rats getting 1-3 point were selected for the subsequent experiment. The MCAO rats having the same point were distributed randomly and averagely to each experimental group.
There were sham operation group, model group, Nimodipine group, LQC-T 4 large dosage group, LQC-T4 small dosage group, TMP group and TMP+Vanillic acid group. 0.5% CMC-Na (1 ml·100 g^−1) was administrated intragastrically to the blank group and model group, two dosage groups of 120 mg·kg^−1 and 60 mg·kg^−1 were intragastrically administrated to the LQC-T4(1 ml·100 g^−1) group, and 74 mg·kg^−1 TMP+46 mg·kg^−1 vanillitc acid (1 ml·100 g^−1) were intragastrically administrated, once a day continuously for 10 days.
The SPSS 11.0 software pack was used to carry out the statistical analysis of all the data. The comparison of the enumeration data was carried out with X^2 test P<0.05 had statistical meaning.

MCAO rats [2] = experiment: Tactile stimulus experiment (time of MCAO rats removing the tape); type: in vivo, rat; settings: for time of removing the tape, Evaluation (3 d): model group 244.29 ± 95.46; for time of removing the tape, Evaluation (7 d): model group 221.53 ± 105.33
From the text: 140 healthy SD male rats, weighing 280-300 g, provided by Beijing Vital River Laboratories, certificate No.: SCXK (Jing) 2002-2003. The method of [Koizumi J, Yoshida […]. Experimental studies of ischemia brain edema, I: A new experimental model of cerebral embolism in rats in which recirculation can be introduced in the ischemic area[J]. […] After the rats were anesthetized and the skin thereof was disinfected by ethanol. By cutting right in the middle of the neck, the right common carotid artery, internal carotid artery and external carotid artery were separated and the common carotid artery and external carotid artery were ligated. The internal carotid artery was clamped with a bulldog clamp. A cut was made at the crotch of the external carotid artery and the internal carotid artery followed by releasing the bulldog clamp. […] Next, the external carotid artery was ligated and the nylon wire was fixed. In sham operation group, the right common carotid artery, the external carotid artery and the internal carotid artery were only exposed and separated. The rats were routinely raised in different cages. 0.5 ml penicillin was continuously injected into every mouse for three days after the surgery. […] The rats getting 1-3 point were selected for the subsequent experiment. The MCAO rats having the same point were distributed randomly and averagely to each experimental group. […] Evaluated was the executive function change of side forelimb sense and fine motor movement after the cerebral ischemia. […] The third and the seventh days after the administration were set as the observation time to carry out the test. The SPSS 11.0 software pack was used to carry out the statistical analysis of all the data. The comparison of the enumeration data was carried out with X^2 test P<0.05 had statistical meaning.

[3] = 60 mg/kg intragastrically once a day
[4] = 120 mg/kg intragastrically once a day

COc1cc(C(=O)OCc2nc(C)c(C)nc2C)ccc1OCc1nc(C)c(C)nc1C [LQC-T4, (3,5,6-trimethylpyrazine-2-yl)methyl 3-methoxy-4-((3,5,6-trimethylpyrazine-2-yl)methoxy) benzoate]
neurological symptoms evaluation (3 d) (MCAO rats [1]; [3]): 1.40 ± 0.51 | neurological symptoms evaluation (7 d) (MCAO rats [1]; [3]): 1.26 ± 0.35 | neurological symptoms evaluation (3 d) (MCAO rats [1]; [4]): 1.29 ± 0.47 | neurological symptoms evaluation (7 d) (MCAO rats [1]; [4]): 1.60 ± 0.74 | time of removing the tape, Evaluation (3 d) (MCAO rats [2]; [3]): 181.31 ± 133.40 s | time of removing the tape, Evaluation (7 d) (MCAO rats [2]; [3]): 175.80 ± 139.06 s | time of removing the tape, Evaluation (3 d) (MCAO rats [2]; [4]): 222.64 ± 104.45 s | time of removing the tape, Evaluation (7 d) (MCAO rats [2]; [4]): 245.95 ± 98.23 s

COCCOC(=O)C1=C(C)NC(C)=C(C(=O)OC(C)C)C1c1cccc([N+](=O)[O-])c1 (stereo not shown) [Nimodipine, reference compound]
neurological symptoms evaluation (3 d) (MCAO rats [1]; 30 mg/kg once a day): 1.35 ± 0.49 | neurological symptoms evaluation (7 d) (MCAO rats [1]; 30 mg/kg once a day): 1.11 ± 0.48 | time of removing the tape, Evaluation (3 d) (MCAO rats [2]; 30 mg/kg once a day): 211.13 ± 116.65 s | time of removing the tape, Evaluation (7 d) (MCAO rats [2]; 30 mg/kg once a day): 183.93 ± 124.50 s

Cc1nc(C)c(C)nc1C [TMP, tetramethylpyrazine, reference compound]
neurological symptoms evaluation (3 d) (MCAO rats [1]; 37 mg/kg once a day): 1.36 ± 0.50 | neurological symptoms evaluation (7 d) (MCAO rats [1]; 37 mg/kg once a day): 1.67 ± 0.78 | time of removing the tape, Evaluation (3 d) (MCAO rats [2]; 37 mg/kg once a day): 200.43 ± 117.81 s | time of removing the tape, Evaluation (7 d) (MCAO rats [2]; 37 mg/kg once a day): 211.35 ± 111.15 s
